Measurements from patent publication US20240240155A1, “Organoid-Derived Monolayers and Uses Thereof” (Hub Organoids IP B.V., priority 2021, published 2024).

Columns and labels:
ALK5 (TGF-βR1) = target: T1, ALK5 (TGF-βR1) (Homo sapiens, UniProt P36897); settings: high concentrations; cited from earlier work
T1 sequence (P36897 34-503): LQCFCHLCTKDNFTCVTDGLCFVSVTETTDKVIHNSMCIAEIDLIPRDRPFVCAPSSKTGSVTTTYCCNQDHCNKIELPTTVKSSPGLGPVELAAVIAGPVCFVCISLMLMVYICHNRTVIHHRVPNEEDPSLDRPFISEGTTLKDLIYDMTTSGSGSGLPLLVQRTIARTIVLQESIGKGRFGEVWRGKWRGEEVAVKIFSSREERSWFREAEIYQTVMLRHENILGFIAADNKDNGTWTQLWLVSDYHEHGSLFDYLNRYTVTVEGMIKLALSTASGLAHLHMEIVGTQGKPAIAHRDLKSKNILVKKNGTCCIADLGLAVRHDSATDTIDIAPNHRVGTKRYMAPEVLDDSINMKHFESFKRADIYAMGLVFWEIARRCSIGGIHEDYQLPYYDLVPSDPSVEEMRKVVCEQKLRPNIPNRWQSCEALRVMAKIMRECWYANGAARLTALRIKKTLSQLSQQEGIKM

[1] = system: IBD-PDO derived distal colon epithelium monolayers; experiment: Barrier function assay in IBD-PDO monolayers, LY permeability; format: cell-based, human; settings: 0.1, 2 and 10 μM pre-treatment
[2] = system: normal ileum-derived organoid epithelium monolayers; experiment: Cytokine-induced barrier injury with tofacitinib pre-treatment, TEER; format: cell-based, human
Protocol: (§1) (A) Transepithelial electrical resistance (TEER). (B) Relative TEER values from the same Transwell before treatment after 5 and 24 hours. (C) Permeability and (D) Cell viability of the same Transwell after 24 hours in response to treatments. Data are represented as mean±SD for 3 technical replicates. An unpaired t-test was performed on permeability and cell viability data. A one-way ANOVA (Dunett's multiple comparisons test) was done on normalized TEER, permeability and cell viability data. *P<0.05, **P<0.01, ***P<0.001.
The experimental condition above were reproduced by repeating the same experiment with same normal colon-derived epithelium monolayer and extended to normal ileum-derived organoid epithelium monolayers from the same donor, as in the previous experiment.
To address IFN-γ specificity in inducing barrier injury, TNF-α/IL-1α combination (data not shown) was included in addition to IFN-γ/TNF-α/IL-1α and IFN-γ/TNF-α.

[3] = system: IBD-PDO ileum epithelium monolayers; experiment: Barrier function assay in IBD-PDO monolayers, cell viability; format: cell-based, human; settings: 0.1, 2 and 10 μM pre-treatment
[4] = system: IBD-PDO derived distal colon epithelium monolayers; experiment: Barrier function assay in IBD-PDO monolayers, TEER; format: cell-based, human; settings: highest tofacitinib concentration
Protocol: (A-C) Transepithelial electrical resistance (TEER). (D-F) relative TEER value from the same Transwell before treatment after 5 and 24 hours. (G-I) Permeability and (J-L) cell viability of the same Transwell after 24 hours in response to treatments. Data represented as mean±SD for 3 technical replicates. A two-way ANOVA (Dunett's multiple comparisons test) was done on normalized TEER, all conditions were compared to the pre-treatment conditions. For permeability and cell viability data a one-way ANOVA (Dunett's multiple comparisons test) was used. ****P<0.0001; ***P<0.001; **P<0.01; *P<0.1; ns, not significant.
(§2) IBD patient-derived organoid (IBD-PDO) monolayer cultures from ileum, proximal and distal colon were established following the same protocols used in previous experiments. […] Their barrier integrity was measured at 5 and 24 hours followed by LY permeability and cell viability performed (FIGS. 10, 11).

[5] = system: IBD-PDO ileum epithelium monolayers; experiment: Barrier function assay in IBD-PDO monolayers, LY permeability; format: cell-based, human; settings: 0.1, 2 and 10 μM pre-treatment
[6] = system: IBD-PDO derived distal colon epithelium monolayers; experiment: Barrier function assay in IBD-PDO monolayers, cell viability; format: cell-based, human; settings: 0.1, 2 and 10 μM pre-treatment
[7] = system: normal ileum-derived organoid epithelium monolayers; experiment: Cytokine-induced barrier injury with tofacitinib pre-treatment, LY permeability; format: cell-based, human; settings: 10 μM tofacitinib, IFN-γ containing cytokine cocktails
[8] = system: IBD-PDO proximal colon epithelium monolayers; experiment: Barrier function assay in IBD-PDO monolayers, TEER; format: cell-based, human; settings: after 24 hours
Protocol: as §2

[9] = system: normal colon-derived epithelium monolayers; experiment: Cytokine-induced barrier injury with tofacitinib pre-treatment, Lucifer Yellow permeability assay; format: cell-based, human
[10] = system: IBD-PDO ileum epithelium monolayers; experiment: Barrier function assay in IBD-PDO monolayers, TEER; format: cell-based, human; settings: 0.1, 2 and 10 μM pre-treatment
Protocol: (A) Transepithelial electrical resistance (TEER). (B) relative TEER value from the same transwell before treatment after 5 and 24 hours. (C) Permeability and (D) cell viability of the same Transwell after 24 hours in response to treatments. Data represented as mean±SD for 3 technical replicates. A two-way ANOVA (Dunett's multiple comparisons test) was done on normalized TEER, all conditions were compared to the pre-treatment conditions. For permeability and cell viability data a one-way ANOVA (Dunett's multiple comparisons test) was used. ****P<0.0001; ***P<0.001; **P<0.01; *P<0.1; ns, not significant.
as §2

[11] = system: normal colon-derived epithelium monolayers; format: cell-based, human; settings: cytokine-treated colon monolayers
[12] = system: normal colon-derived epithelium monolayers; experiment: Cytokine-induced barrier injury with tofacitinib pre-treatment, TEER; format: cell-based, human
Protocol: (A) Transepithelial electrical resistance (TEER). (B) relative TEER value from the same Transwell before treatment after 5 and 24 hours. (C) Permeability and (D) Cell viability of the same Transwell after 24 hours in response to treatments. […] (E) TEER (top), permeability (middle) and cell viability (bottom) dose response curves. EC50 values were calculated by Non-linear regression log(inhibitor) versus response variable slope (four parameters) of three technical replicates.
as §1, with “Data are represented as mean±SD for 3 technical replicates.” left out
At this point, the culture medium was changed to cCDM until epithelium monolayer barrier integrity further increased (TEER >1000 Ω·cm^2). […] These measurements were normalized to the TEER value of the same Transwell before measurement, to correct for well-to-well TEER variability (FIG. 7B). Paracellular permeability was measured by the Lucifer Yellow (LY) permeability assay after 24 hours (FIG. 7C). Subsequently, monolayer cell viability was measured by the ATP Luminescent Assay, CellTiter-Glo 3D, to monitor for loss of barrier function due to cell death, as opposed to increased paracellular permeability. […] (FIG. 7D).

[13] = system: Human gastro-intestinal tract organoid-derived monolayers; experiment: Polarisation assay: TEER and Lucifer yellow permeability after apical or basolateral treatment; format: cell-based; settings: eCDM; apical, basolateral or both compartments; day 3 after seeding
P-gp [14] = target: T2, P-gp (Homo sapiens, UniProt P08183); experiment: Calcein transport assay, pulse-chase format, lung-C monolayers; format: cell-based; settings: T=2 hours
T2 construct: endogenous in cells; host or cells: human lung organoid-derived monolayer (donor lung-C)
T2 sequence (P08183 whole entry): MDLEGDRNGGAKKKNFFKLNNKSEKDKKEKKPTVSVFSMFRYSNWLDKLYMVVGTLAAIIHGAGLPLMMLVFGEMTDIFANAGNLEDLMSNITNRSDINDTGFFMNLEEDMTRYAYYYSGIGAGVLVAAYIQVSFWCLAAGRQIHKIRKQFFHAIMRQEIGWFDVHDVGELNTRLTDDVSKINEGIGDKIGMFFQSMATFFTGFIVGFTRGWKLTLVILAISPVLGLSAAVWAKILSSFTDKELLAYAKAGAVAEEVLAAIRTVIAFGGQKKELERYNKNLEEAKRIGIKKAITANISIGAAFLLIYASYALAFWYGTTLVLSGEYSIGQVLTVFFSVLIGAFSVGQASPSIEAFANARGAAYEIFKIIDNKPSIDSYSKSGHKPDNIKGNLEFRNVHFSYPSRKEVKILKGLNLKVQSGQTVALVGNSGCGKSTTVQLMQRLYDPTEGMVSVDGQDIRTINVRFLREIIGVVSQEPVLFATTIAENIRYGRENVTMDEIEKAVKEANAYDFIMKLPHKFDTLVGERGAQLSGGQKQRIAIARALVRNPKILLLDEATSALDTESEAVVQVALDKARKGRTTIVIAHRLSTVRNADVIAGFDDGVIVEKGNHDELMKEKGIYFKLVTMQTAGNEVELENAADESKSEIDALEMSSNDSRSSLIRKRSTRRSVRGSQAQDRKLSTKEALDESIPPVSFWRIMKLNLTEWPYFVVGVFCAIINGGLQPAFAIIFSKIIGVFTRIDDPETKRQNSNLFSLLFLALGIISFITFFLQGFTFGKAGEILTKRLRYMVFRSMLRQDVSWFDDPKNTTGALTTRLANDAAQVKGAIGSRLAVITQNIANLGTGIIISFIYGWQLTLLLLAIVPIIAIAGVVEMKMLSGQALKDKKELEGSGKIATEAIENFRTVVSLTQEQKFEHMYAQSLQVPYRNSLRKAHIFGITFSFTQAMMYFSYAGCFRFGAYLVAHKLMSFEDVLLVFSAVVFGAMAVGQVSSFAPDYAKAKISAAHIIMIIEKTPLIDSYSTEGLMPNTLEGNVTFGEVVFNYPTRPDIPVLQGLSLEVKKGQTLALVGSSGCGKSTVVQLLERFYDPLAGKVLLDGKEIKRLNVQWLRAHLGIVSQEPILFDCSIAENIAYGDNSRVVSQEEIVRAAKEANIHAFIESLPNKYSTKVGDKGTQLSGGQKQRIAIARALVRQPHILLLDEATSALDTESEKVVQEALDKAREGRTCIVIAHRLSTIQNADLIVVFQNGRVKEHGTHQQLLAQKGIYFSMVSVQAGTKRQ

P-gp [15] = target: T2, P-gp; experiment: Calcein transport assay, kidney-C monolayers; format: cell-based; settings: 1 μM, 30 mins; KEM or DAC conditions, day 7
P-gp [16] = target: T2, P-gp; experiment: Rhodamine transport assay, kidney-C monolayers; format: cell-based; settings: 1 μM, 30 mins; day 7
P-gp [17] = target: T2, P-gp; experiment: Calcein transport assay, accumulation format, lung-C monolayers; format: cell-based; settings: 1 μM, 30 mins; LuM LLI and LuM ALI
[18] = system: normal colon derived epithelium monolayers; experiment: Proinflammatory cytokine titration, barrier injury by TEER; format: cell-based, human; settings: cCDM culture condition, 24 hours after cytokine addition
Excerpt: FIG. 6 illustrates inducing barrier injury to normal colon derived epithelium monolayers on 96 well transwell plates in expansion (CNM) and combination (cCDM) culture conditions by serial titration of proinflammatory cytokines. All proinflammatory cytokines were used at the final concentrations listed on the graph regardless of combination. (A)-(H) illustrate transepithelial […] (TEER) in CNM and cCDM culture conditions. Data are represented as mean±SD for 3 technical replicates. […] EC50 dose response curves were calculated by Non-linear regression log(inhibitor) versus response variable slope (four parameters).
As IFN-γ has major impact in inducing barrier damage via JAK-STAT signalling pathway, we titrated different combinations of three indicated proinflammatory cytokines to resolve TNF-α and IL-1α synergy in combination with IFN-γ. […] The lower sensitivity of organoid-derived epithelium monolayers cultured in CNM correlated with a lower expression of IFN-γ receptor (IFNGR1) compared to the cCDM culture condition.

## C[S+]([O-])c1ccc(-c2nc(-c3ccc(F)cc3)c(-c3ccncc3)[nH]2)cc1 (centres unmarked) [SB-203580]
ALK5 (TGF-βR1)
  concentration at which it is thought to inhibit ALK5: ≥ 10 µM

## C[C@@H]1CCN(C(=O)CC#N)C[C@@H]1N(C)c1ncnc2[nH]ccc12 [tofacitinib]
[1]
  inhibition of cytokine-compromised LY permeability: inhibited by tofacitinib in a dose responsive manner
[2]
  tofacitinib pre-treatment concentration that protected monolayers: 10 µM
[3]
  inhibition of cytokine-compromised cell viability: inhibited by tofacitinib in a dose responsive manner
[4]
  effect on TNF-α/IL-1α reduced barrier function integrity: not inhibited or restored with highest tofacitinib concentration
[4]; 5 hours
  inhibition of induced damage (TEER): not completely inhibited even with highest tofacitinib concentration
[4]; 24 hours
  restoration of induced damage (TEER): restored after 24 hours
[5]
  inhibition of cytokine-compromised LY permeability: inhibited by tofacitinib in a dose responsive manner
[6]
  inhibition of cytokine-compromised cell viability: inhibited by tofacitinib in a dose responsive manner
[7]
  LY permeability after pre-treatment: became impermeable again
[8]
  pre-treatment concentration with which barrier integrity damage was completely restored: higher than 0.1 μM
[9]; Homo sapiens, read-out: Permeability (EC50 of tofacitinib dose response, FIG. 7E), IFN-γ/TNF-α/IL-1α 1 ng/mL
  EC50: 316 nM
[9]; cytokine-treated colon monolayers
  concentration at which apparent permeability of LY was reduced: above 3 μM
[10]
  inhibition of IFN-γ/TNF-α/IL-1α and IFN-γ/TNF-α barrier injury (TEER): inhibited by tofacitinib pre-treatment in a dose response manner
[11]
  pre-treatment concentration that prevented cytokine induced cell death: above 3 μM
[12]; both cytokine combinations, TEER
  pre-treatment concentration that maintained barrier function integrity: above 3 μM
[12]; colon
  tofacitinib pre-treatment concentration that protected monolayers: 2 µM
[12]; highest tofacitinib concentration used
  inhibition of TNF-α/IL-1α induced barrier function injury: not inhibited by highest tofacitinib concentration used
[12]; tofacitinib 0.1 μM pre-treatment
  protection from cytokine induced barrier injury: partially protected
[12]; tofacitinib 2 μM pre-treatment
  protection from cytokine induced barrier injury: completely

## COc1cc2ncnc(Nc3ccc(F)c(Cl)c3)c2cc1OCCCN1CCOCC1 [Gefitinib]
[13]
  integrity of organoid-derived epithelial monolayers (TEER, Lucifer yellow permeability): compromised only when Gefitinib is added to the basolateral compartment

## C/C=C/C[C@@H](C)C(=O)[C@H]1C(=O)N[C@@H](C(C)C)C(=O)N(C)CC(=O)N(C)[C@@H](CC(C)C)C(=O)N[C@@H](C(C)C)C(=O)N(C)[C@@H](CC(C)C)C(=O)N[C@@H](C)C(=O)N[C@H](C)C(=O)N(C)[C@@H](CC(C)C)C(=O)N(C)[C@@H](CC(C)C)C(=O)N(C)[C@@H](C(C)C)C(=O)N1C [PSC833]
P-gp [14]
  Calcein AM accumulation or efflux: did not show notable effects on Calcein AM accumulation or efflux
P-gp [15]
  cellular accumulation of Calcein AM: Increased cellular accumulation of Calcein AM
P-gp [16]
  cellular accumulation of Rhodamine: Increased cellular accumulation of Rhodamine
P-gp [17]
  cellular accumulation of Calcein AM: Increased cellular accumulation of Calcein AM

B1: IFN-γ: proinflammatory cytokine, single treatment (protein, UniProt P01579 24-161, looked up)
Interferon gamma: QDPYVKEAENLKKYFNAGHSDVADNGTLFLGILKNWKEESDRKIMQSQIVSFYFKLFKNFKDDQSIQKSVETIKEDMNVKFFNSNKKKRDDFEKLTNYSVTDLNVQRKAIHELIQVMAELSPAAKTGKRKRSQMLFRG
[18]
  EC50 calculated from EC50 dose response curves (TEER): 3.71
